Results from US20190269666A1, “COMBINATION THERAPY WITH MERESTINIB AND ANTI-PD-L1 OR ANTI-PD-1 INHIBITORS FOR USE IN THE TREATMENT OF CANCER” (Eli Lilly and Company, priority 2016, published 2019).

Tested on: CT26 colorectal cancer model
Assay: Study S010516: merestinib and anti-PD-L1 antibody combinations in CT26 syngeneic mouse tumor model
Format: in vivo
Set-up: key to Mean Tumor Volume: mm³; tumor volume v = l×w²×0.536
Conditions: for Mean Tumor Volume: in mm³ (unit assumed)
Experimental: A syngeneic mouse tumor model is used to evaluate potential combination effect of merestinib and anti-PD-L1 antibody is the CT26 colorectal cancer model using the mouse colorectal cancer line CT26. This experiment is conducted in immune competent mice (Grosso and Jure-Kunkel, Cancer Immunity Vol. 13, p. 5, January 2013; Duraiswamy et al, Cancer Research, Jun. 15, 2013 73; 3591.). Anti-PD-L1 antibody surrogate (178G7, LSN3370181) (Eppihimer et al. Microcirculation 2002:9(2):133) is used in the mouse study.
Female BALB/c mice (18-20 gm) from Envigo (Harlan Laboratories) are used for this study. Food and water are available ad libitum. Animals are acclimated for one week prior to any experimental manipulation. The study is performed in accordance with AALAC accredited institutional guidelines.
Merestinib is formulated as a solution in 10% PEG 400 in 90% (20% Captisol in water) once weekly. Anti-PD-L1 antibody (178G7, LSN3370181) is formulated in PBS (phosphate buffered saline).
CT26 cells (from internal in vivo pharmacology cell culture group lot CT26.WT.3184878) are used for implantation. Approximately 1×10^6 cells in HBSS are implanted subcutaneously into the right hind flank of the animal under anesthesia.
Study S010516 has six groups: 1) vehicle control (10% PEG 400 in 90% [20% Captisol in water]) dosed orally once daily for 21 days and dosing initiated at Day 6 post-implant of CT26 cells; 2) single agent anti-PD-L1 antibody (178G7, LSN3370181) dosing via IP at 500 μg/animal once weekly for 3 weeks initiated at Day 6 post-implant of CT26 cells; 3) single agent merestinib at 12 mg/kg once daily orally for 21 days and initiated at Day 6 post-implant of CT26 cells; 4) concurrent combination of merestinib (12 mg/kg once daily for 21 days orally) and anti-PD-L1 antibody (500 μg/animal once weekly via IP for 3 weeks) and initiated at Day 6 post-implant of CT26 cells; 5) sequential combination of merestinib (12 mg/kg once daily for 21 days orally and initiated at Day 6 post-implant of CT26 cells) and anti-PD-L1 antibody (500 μg/animal once weekly via IP for 3 weeks and initiated at Day 13 post-implant of CT26 cells); 6) delayed concurrent combination of merestinib (12 mg/kg once daily for 21 days orally) and anti-PD-L1 antibody (500 μg/animal once weekly via IP for 3 weeks) and initiated at Day 10 post-implant of CT26 cells.
There are 15 animals per group. Five animals per group are taken down on Day 20 post-implant of CT26 cells for the harvesting of spleens and tumors for the interrogation of the effect of the combination of merestinib and anti-PD-L1 antibody combination on immune functions. Ten animals per group remain for the duration of the study unless, as pre-defined in the study protocol, the animal is to be sacrificed if the tumor volume exceeds 2500 mm^3 or is ulcerated. Tumor volumes and body weight are measured bi-weekly. Tumor volume is estimated by using the formula: v=l×w2×0.536 where l=larger of measured diameter and w=smaller of perpendicular diameter.
The last dose of drug is received on Day 20, Day 27, Day 27, Day 27 and Day 31, respectively, for group 2, group 3, group 4, group 5 and group 6. On Day 64, about 1 month to 1.5 months after completing drug-dosing, animals that are still alive and with tumor response classified as PR (partial responder) or CR (complete responder) are re-challenged with a new implantation of CT26 tumor cells (1×10^6 cells in HBSS) subcutaneously into the contralateral side of the hind flank (left side) of the animal under anesthesia. The definition of PR and CR is in the statistical method section below. Three naïve animals (study protocol S035116) are used as control and are implanted with the same batch of CT26 tumor cells (1×10^6 cells in HBSS) subcutaneously into the left hind flank of the animal under anesthesia. Tumor growth is monitored and measured in the animals. […]

[1] = animals of 10/group, tumor volume ≤25 mm^3

Cc1ccc(C(=O)Nc2ccc(Oc3cc4cnn(C)c4cc3-c3cn[nH]c3)c(F)c2)c(=O)n1-c1ccc(F)cc1 [merestinib, N-(3-fluoro-4-(1-methyl-6-(1H-pyrazol-4-yl)-1H-indazol-5-yloxy)phenyl)-1-(4-fluorophenyl)-6-methyl-2-oxo-1,2-dihydropyridine-3-carboxamide]
tumor growth after cessation of dosing (12 mg/kg, after the 21 day dosing period, Days 33-40): grew exponentially
% Response (% ΔT/C above baseline, % Regression below baseline) (Day 8): −65.5%
Mean Tumor Volume (Day 8): 64.7
% Response (% ΔT/C above baseline, % Regression below baseline) (Day 12): −29.4%
Mean Tumor Volume (Day 12): 132.5
% Response (% ΔT/C above baseline, % Regression below baseline) (Day 15): 14.6%
Mean Tumor Volume (Day 15): 206.6
% Response (% ΔT/C above baseline, % Regression below baseline) (Day 19): 53.7%
Mean Tumor Volume (Day 19): 357.7
% Response (% ΔT/C above baseline, % Regression below baseline) (Day 22): 35.6%
Mean Tumor Volume (Day 22): 491.5
% Response (% ΔT/C above baseline, % Regression below baseline) (Day 25): 31.3%
Mean Tumor Volume (Day 25): 717.0
% Response (% ΔT/C above baseline, % Regression below baseline) (Day 28): 24.8%
Mean Tumor Volume (Day 28): 845.3
% Response (% ΔT/C above baseline, % Regression below baseline) (Day 33): 27.1%
Mean Tumor Volume mm^3 (Day 33): 1609.0 mm^3
T/C % (Day 33): 31.2%
anti-tumor effect as compared to vehicle control (Day 33 / end of dosing): significant anti-tumor effect
Difference (Treatment 1 − Treatment 2), log scale tumor volume (Day 33, Treatment 1 = Vehicle control): 0.529
Mean Tumor Volume (Day 33): 1608.2
Day 33 Treatment Responders GD (Growth Delay) (animals of 10/group): 1
Day 33 Treatment Responders PD (Progressive Disease) (animals of 10/group): 9
Day 33 Treatment Responders PR (Partial Response) (animals of 10/group): 0
Day 64 Treatment Responders GD (Growth Delay) (animals of 10/group): 1
Day 64 Treatment Responders PD (Progressive Disease) (animals of 10/group): 9
Day 64 Treatment Responders PR (Partial Response) (animals of 10/group): 0
Day 33 Treatment Responders CR (Complete and durable Regression) [1]: 0
Day 64 Treatment Responders CR (Complete and durable Regression) [1]: 0
